Here are results for six molecules from ChEMBL document CHEMBL1777770, “Design, synthesis, inhibitory activity, and binding mode study of novel DNA methyltransferase 1 inhibitors” (Bioorg Med Chem Lett, 2010).

Calls of active or inactive are those of the source. No cut-off for these calls is given here.

As usually defined, the inhibition is the relative decrease from the control value, in per cent.

Experiment [1] addresses DNA (cytosine-5)-methyltransferase 1 (Homo sapiens) (UniProt P26358). As to the kind of experiment: Inhibition of human DNA methyltransferase using S-adenosyl-L-methionine substrate at 10 to 1000 uM measured after 60 mins.
The target is the same in experiment [2]. As to the kind of experiment: Inhibition of human DNA methyltransferase using S-adenosyl-L-methionine substrate at 10 uM measured after 60 mins.
Experiment [3] has the same target. Kind of experiment: Inhibition of human DNA methyltransferase using S-adenosyl-L-methionine substrate at 1000 uM measured after 60 mins.

Chain of DNA (cytosine-5)-methyltransferase 1 (Homo sapiens) (P26358 whole entry): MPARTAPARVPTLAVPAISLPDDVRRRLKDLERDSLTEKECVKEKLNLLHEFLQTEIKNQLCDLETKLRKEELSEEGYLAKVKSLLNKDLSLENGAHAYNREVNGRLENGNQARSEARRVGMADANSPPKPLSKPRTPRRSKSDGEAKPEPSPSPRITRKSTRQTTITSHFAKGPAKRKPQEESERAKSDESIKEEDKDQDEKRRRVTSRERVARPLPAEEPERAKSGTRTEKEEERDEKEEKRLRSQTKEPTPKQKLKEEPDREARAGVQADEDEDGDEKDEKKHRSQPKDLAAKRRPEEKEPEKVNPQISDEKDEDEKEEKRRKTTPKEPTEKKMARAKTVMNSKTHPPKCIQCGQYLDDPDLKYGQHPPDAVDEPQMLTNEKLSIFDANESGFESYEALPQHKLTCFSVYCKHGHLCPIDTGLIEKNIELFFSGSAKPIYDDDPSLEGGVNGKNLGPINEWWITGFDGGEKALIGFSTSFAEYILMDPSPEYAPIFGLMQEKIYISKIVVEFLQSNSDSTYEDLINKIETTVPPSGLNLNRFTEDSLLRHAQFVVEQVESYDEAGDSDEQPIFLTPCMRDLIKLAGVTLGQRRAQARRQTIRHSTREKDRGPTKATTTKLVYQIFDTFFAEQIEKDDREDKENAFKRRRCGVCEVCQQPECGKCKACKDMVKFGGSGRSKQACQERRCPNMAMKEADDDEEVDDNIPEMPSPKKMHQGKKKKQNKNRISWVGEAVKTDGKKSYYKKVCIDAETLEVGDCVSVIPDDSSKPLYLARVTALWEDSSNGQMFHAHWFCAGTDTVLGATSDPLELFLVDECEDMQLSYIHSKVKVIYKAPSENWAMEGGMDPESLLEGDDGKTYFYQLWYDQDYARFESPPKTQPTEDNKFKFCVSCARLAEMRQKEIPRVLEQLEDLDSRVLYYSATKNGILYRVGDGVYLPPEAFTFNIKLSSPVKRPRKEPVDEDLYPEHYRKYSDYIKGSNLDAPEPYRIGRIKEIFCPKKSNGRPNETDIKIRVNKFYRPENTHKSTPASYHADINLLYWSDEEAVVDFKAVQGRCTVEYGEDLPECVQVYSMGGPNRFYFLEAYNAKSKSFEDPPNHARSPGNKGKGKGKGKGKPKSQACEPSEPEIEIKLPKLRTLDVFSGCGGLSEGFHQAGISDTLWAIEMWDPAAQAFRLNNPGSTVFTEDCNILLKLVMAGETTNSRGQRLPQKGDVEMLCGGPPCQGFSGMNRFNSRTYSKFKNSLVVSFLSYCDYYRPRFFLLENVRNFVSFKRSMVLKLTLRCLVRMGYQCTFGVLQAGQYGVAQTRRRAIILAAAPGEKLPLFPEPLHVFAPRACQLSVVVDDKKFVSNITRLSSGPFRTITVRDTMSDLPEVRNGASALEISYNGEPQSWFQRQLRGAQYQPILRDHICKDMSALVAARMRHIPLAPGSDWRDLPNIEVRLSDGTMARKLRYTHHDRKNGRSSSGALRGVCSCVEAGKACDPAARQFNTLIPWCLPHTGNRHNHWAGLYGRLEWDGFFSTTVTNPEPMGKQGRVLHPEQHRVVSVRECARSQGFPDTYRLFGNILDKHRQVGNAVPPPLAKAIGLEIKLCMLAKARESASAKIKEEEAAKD

For `O=C(O)[C@H](Cc1c[nH]c2ccccc12)N1C(=O)C=CC1=O`, in experiment [1], the inhibition result was “Active”. Moreover, the inhibition in experiment [2] came out at 60%.

As for `O=C(O)[C@H](Cc1c[nH]c2ccccc12)N1C(=O)C=C(c2ccccc2)C1=O`, the inhibition entry in experiment [1] was “Active”.

On to `CC1=C(C)C(=O)N([C@@H](Cc2c[nH]c3ccccc23)C(=O)O)C1=O`, for which the inhibition entry in experiment [1] was “Active”.

In the case of `O=C(O)[C@H](Cc1c[nH]c2ccccc12)N1C(=O)c2ccccc2C1=O`, in experiment [3], the inhibition amounted to 34%.

On to `O=C(O)[C@H](Cc1c[nH]c2ccccc12)N1C(=O)CCC1=O`, for which, in experiment [1], the inhibition entry is “inactive”.

In the case of `CC1=CC(=O)N([C@@H](Cc2c[nH]c3ccccc23)C(=O)O)C1=O`, the inhibition entry in experiment [1] is “Active”.
